Patent US8993552B2, “Compositions and methods for treatment of leukemia” (The Regents of The University of Michigan, priority 2009, dated 2015)
pIC50: −log10 of the molar value. “Also recorded” adds a separate entry of the source. Where two headings read alike, the source gives them in different places. One block for each compound: values may come before it.

How the values were obtained:
[1] = test system: Hep-G2 (liver) cell line; test: MTT viability assay, liver cell line
[2] = test system: human leukemia cell lines with MLL translocations (MV4;11, ML-2, KOPN-8, Karpas 45); test: ATP-based luminescence cell viability assay in MLL leukemia cell lines; conditions: range over MLL leukemia cell lines
[3] = Solubility (stated in words); type: physicochemical; conditions: relative to Compound 1, in words
[4] = test system: HK-2 (kidney) cell line; test: MTT viability assay, kidney cell line
[5] = test system: MV4;11 cells (MLL-AF4); test: Annexin V/PI staining flow cytometry
[6] = test system: THP-1 leukemia cells; test: Differentiation of THP-1 cells, CD11b by flow cytometry; type: cell-based, human
Description: Thienopyrimidine and benzodiazepine compounds induce differentiation of the MLL leukemia cells.

[7] = target: T1, menin-MLL interaction (Homo sapiens (Human), UniProt O00255); test: HTRF (TR-FRET) assay, His-tagged menin and biotinylated MLL peptide; type: binding; conditions: Table 3
T1 sequence (O00255 whole entry): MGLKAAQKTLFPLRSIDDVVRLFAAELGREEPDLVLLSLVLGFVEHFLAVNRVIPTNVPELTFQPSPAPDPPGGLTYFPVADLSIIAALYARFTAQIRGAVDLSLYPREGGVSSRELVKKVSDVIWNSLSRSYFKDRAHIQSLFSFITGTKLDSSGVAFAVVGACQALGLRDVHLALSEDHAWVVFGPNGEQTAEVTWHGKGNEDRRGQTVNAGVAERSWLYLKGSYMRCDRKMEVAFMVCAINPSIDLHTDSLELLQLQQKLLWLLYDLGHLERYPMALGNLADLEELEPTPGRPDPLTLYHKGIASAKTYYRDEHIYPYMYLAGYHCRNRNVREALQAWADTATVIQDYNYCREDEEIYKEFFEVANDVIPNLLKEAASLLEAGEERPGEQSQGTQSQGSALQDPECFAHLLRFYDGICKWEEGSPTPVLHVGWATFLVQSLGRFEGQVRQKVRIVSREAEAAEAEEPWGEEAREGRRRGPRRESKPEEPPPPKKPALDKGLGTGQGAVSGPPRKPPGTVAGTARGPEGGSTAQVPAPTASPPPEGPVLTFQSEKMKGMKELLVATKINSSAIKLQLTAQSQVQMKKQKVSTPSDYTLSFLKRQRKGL

[8] = test system: Hoxa9 promoter; test: Luciferase reporter assay in HEK293 cells transfected with MLL-AF9
[9] = test system: human leukemia cell lines with MLL translocations (MV4;11, KOPN-8, THP-1, MonoMac6); test: MTT viability assay in MLL leukemia cell lines; type: cell-based; conditions: in words
[10] = target: T1, menin-MLL interaction; test: Fluorescence polarization (FP) competition assay with fluorescein-labeled MLL peptide; type: binding;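 further: Read-out is fluorescence anisotropy of fluorescein-labeled MLL peptide bound to menin, inhibitors displace the peptide and lower anisotropy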
[11] = test system: THP-1 cells (MLL-AF9); test: Annexin V/PI staining flow cytometry
[12] = target: T1, menin-MLL interaction; conditions: 50 μM and 25 μM compound, vs DMSO control
[13] = test system: mouse bone marrow transduced with MLL-AF9; test: MTT viability assay, transduced mouse bone marrow; type: cell-based
Description: (§1) Effects of thienopyrimidine compounds on mouse bone marrow transduced with MLL-AF9 and MLL-ENL.

[14] = test system: mouse bone marrow transduced with MLL-ENL; test: MTT viability assay, transduced mouse bone marrow; type: cell-based
Description: as §1

[15] = test system: non-MLL leukemia cell lines (Kasumi-1, ME-1); test: MTT viability assay in non-MLL leukemia cell lines; type: cell-based, human; conditions: Kasumi-1 (AML1-ETO), ME-1 (CBFβ-SMMHC)
[16] = test system: mouse bone marrow transduced with E2A-HLF; test: MTT viability assay, transduced mouse bone marrow (negative control); type: cell-based
[17] = test system: Hoxa9 and Meis1 expression; test: qRT-PCR of MLL downstream targets in THP-1 cells

GI50 [2]: 7 to 25 µM
solubility [3]: improved solubility
Compound: CCc1cc2c(N3CCN(c4nnc(CC)s4)CC3)ncnc2s1 [Compound 4]
toxicity in viability assay [1]: no substantial signs of toxicity
toxicity in viability assay ([1]; listed as Compounds 4): no signs of substantial toxicity
toxicity in viability assay [4]: no substantial signs of toxicity
toxicity in viability assay ([4]; listed as Compounds 4): no signs of substantial toxicity

pIC50 [7]: 5.15
pIC50 ([10]; Table 3, NA = no activity, read-out: IC50 in FP assay with FLSN-MLL): 4.89
pIC50 ([10]; re-tested by FP and HTRF, read-out: IC50 for inhibition of the menin-MLL interaction): 4.89
inhibition of the menin-MLL interaction in cells (co-IP) [12]: effectively inhibit
Compound: CC(=O)N1c2ccccc2NC2=C(C(=O)CC(c3ccc(C(C)(C)C)cc3)C2)C1c1cccnc1 (centres unmarked) [Compound 32]
toxicity in viability assay [1]: no signs of substantial toxicity
apoptotic cells ([5]; 25 μM): > 20%
dead cells ([5]; 25 μM): > 20%
induction of apoptosis and cell death ([5]; 25 μM and 50 μM, in words): substantial apoptosis and cell death
expression of CD11b on the cell surface [6]: increased expression of CD11b
transactivation of the Hoxa9 promoter [8]: effectively inhibit; also recorded: dose dependent inhibition
growth inhibition of MLL leukemia cells [9]: substantial growth inhibition; also recorded: strongly inhibited growth
induction of apoptosis and cell death ([11]; 25 μM and 50 μM, in words): substantial apoptosis and cell death
apoptotic cells ([11]; 50 μM): about 20%
dead cells ([11]; 50 μM): > 40%
toxicity in viability assay [4]: no signs of substantial toxicity

Compound: CCCc1cc2c(N3CCN(C4=NCC(C)(C)S4)CC3)ncnc2s1 [Compound 70]
inhibition of cell growth [13]: substantial inhibition of cell growth
inhibition of cell growth [14]: substantial inhibition of cell growth
effect on growth of non-MLL leukemia cell lines [15]: no effect on the cell growth
expression of CD11b on the cell surface [6]: increased expression of CD11b
growth inhibition of MLL leukemia cells [9]: Very effective growth inhibition
inhibition of cell growth [16]: no significant inhibition of cell growth
expression level of Hoxa9 and Meis1 [17]: Downregulation
inhibition of the menin-MLL interaction in cells (co-IP) [12]: effectively inhibit
